Active and inactive are the calls of the source. The rule behind the calls is not given here.
Experiments:
[1] = test system: MDA-MB-231; assay: Antiproliferative activity against human MDA-MB-231 cells incubated for 48 hrs by SRB assay; assay type: functional; settings: MDA-MB-231, 48 h
[2] = Antiproliferative activity against human hepatocytes incubated for 48 hrs by SRB assay; assay type: cell-based, Hepatocyte
[3] = Antiproliferative activity against HUVEC incubated for 48 hrs by SRB assay; assay type: cell-based; settings: human, HUVEC cells
[4] = Antiproliferative activity against NHDF incubated for 48 hrs by SRB assay; assay type: cell-based; settings: human, NHDF cells
[5] = test system: BXPC-3; assay: Antiproliferative activity against human BxPC3 cells incubated for 48 hrs by SRB assay; assay type: functional; settings: BXPC-3, 48 h
[6] = test system: HT-29; assay: Antiproliferative activity against human HT-29 cells incubated for 48 hrs by SRB assay; assay type: functional; settings: HT-29, 48 h
[7] = test system: MCF7; assay: Antiproliferative activity against human MCF7 cells incubated for 48 hrs by SRB assay; assay type: functional; settings: MCF7, 48 h
[8] = test system: SK-MEL-5; assay: Antiproliferative activity against human SK-MEL-5 cells incubated for 48 hrs by SRB assay; assay type: functional; settings: SK-MEL-5, 48 h
[9] = Antiproliferative activity against human ZR-75 cells incubated for 48 hrs by SRB assay; assay type: functional; settings: ZR75, 48 h
[10] = test system: KB; assay: Antiproliferative activity against human KB cells incubated for 48 hrs by SRB assay; assay type: functional
[11] = test system: A549; assay: Antiproliferative activity against human A549 cells incubated for 48 hrs by SRB assay; assay type: functional; settings: A549, 48 h
[12] = test system: PC-6; assay: Antiproliferative activity against human PC6 cells incubated for 48 hrs by SRB assay; assay type: functional; settings: PC-6, 48 h
[13] = test system: OVCAR-4; assay: Antiproliferative activity against human OVCAR4 cells incubated for 48 hrs by SRB assay; assay type: functional; settings: OVCAR-4, 48 h
[14] = test system: OVCAR-3; assay: Antiproliferative activity against human OVCAR3 cells incubated for 48 hrs by SRB assay; assay type: functional; settings: OVCAR-3, 48 h
[15] = test system: PC-3; assay: Antiproliferative activity against human PC3 cells incubated for 48 hrs by SRB assay; assay type: functional; settings: PC-3, 48 h
[16] = biological target: E3 ubiquitin-protein ligase Itchy homolog (Homo sapiens) (UniProt Q96J02); assay: Inhibition of Itch (unknown origin) assessed as reduction in Itch-mediated ubiquitination in presence of E1 enzyme, E2 enzyme and ATP incubated for 20 mins by SDS-PAGE method
Sequence of E3 ubiquitin-protein ligase Itchy homolog (Homo sapiens) (Q96J02 whole entry): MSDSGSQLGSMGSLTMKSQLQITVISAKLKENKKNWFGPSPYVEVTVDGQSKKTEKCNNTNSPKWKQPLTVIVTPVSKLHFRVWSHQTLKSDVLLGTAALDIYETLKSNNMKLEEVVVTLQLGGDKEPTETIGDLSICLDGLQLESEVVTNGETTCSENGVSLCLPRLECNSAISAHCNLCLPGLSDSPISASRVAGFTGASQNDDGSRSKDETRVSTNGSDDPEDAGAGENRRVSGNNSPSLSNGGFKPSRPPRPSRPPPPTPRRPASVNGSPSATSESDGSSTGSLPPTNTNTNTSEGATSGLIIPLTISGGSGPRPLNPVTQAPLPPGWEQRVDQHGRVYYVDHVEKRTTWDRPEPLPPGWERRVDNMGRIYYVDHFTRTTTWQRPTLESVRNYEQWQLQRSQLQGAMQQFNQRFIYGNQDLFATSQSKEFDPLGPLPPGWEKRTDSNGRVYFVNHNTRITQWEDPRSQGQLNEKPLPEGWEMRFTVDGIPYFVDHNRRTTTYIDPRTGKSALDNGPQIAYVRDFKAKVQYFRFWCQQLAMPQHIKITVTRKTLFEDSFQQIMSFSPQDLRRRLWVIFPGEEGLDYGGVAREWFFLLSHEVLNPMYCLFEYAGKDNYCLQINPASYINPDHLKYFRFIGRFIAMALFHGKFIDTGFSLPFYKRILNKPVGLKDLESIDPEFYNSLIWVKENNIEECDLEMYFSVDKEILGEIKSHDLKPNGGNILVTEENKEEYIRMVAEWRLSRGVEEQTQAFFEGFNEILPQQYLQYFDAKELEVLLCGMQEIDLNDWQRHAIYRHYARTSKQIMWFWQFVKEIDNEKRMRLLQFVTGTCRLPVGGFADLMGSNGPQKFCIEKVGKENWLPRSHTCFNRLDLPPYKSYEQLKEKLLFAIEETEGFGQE

[17] = test system: RPMI-8226; assay: Antiproliferative activity against human RPMI8226 cells incubated for 48 hrs by SRB assay; assay type: functional, cell-based; settings: RPMI-8226, 48 h
[18] = test system: RPMI-8226; assay: Reduction of Itch protein expression in human RPMI8226 cells at 10 uM by Western blot; assay type: functional, cell-based
[19] = test system: RPMI-8226; assay: Antitumor activity against human RPMI8226 cells xenografted in SCID nude mouse assessed as inhibition of tumor growth at 25 mg/kg, po dosed daily for 45 days; assay type: functional; settings: RPMI-8226, po, 1080 h, read-out: TGI
[20] = test system: RPMI-8226; assay: Antitumor activity against human RPMI8226 cells xenografted in SCID nude mouse assessed as inhibition of tumor growth at 50 mg/kg, po dosed daily for 45 days; assay type: functional; settings: RPMI-8226, po, 1080 h, read-out: TGI
[21] = test system: Mus musculus; assay: Toxicity in human RPMI8226 cells xenografted SCID nude mouse assessed as effect on body weight at 25 mg/kg, po dosed daily for 45 days; assay type: organism-based; settings: in vivo, 1080 h
[22] = test system: Mus musculus; assay: Toxicity in human RPMI8226 cells xenografted SCID nude mouse assessed as effect on body weight at 50 mg/kg, po dosed daily for 45 days; assay type: organism-based; settings: in vivo, 1080 h
[23] = test system: Mus musculus; assay: Toxicity in human RPMI8226 cells xenografted SCID nude mouse assessed as induction of adverse events at 25 mg/kg, po dosed daily for 45 days; assay type: organism-based; settings: in vivo, 1080 h
[24] = organism: Homo sapiens; assay: Inhibition of UBE1/UbcH3/SCFSkp2/Cks1/p27 (unknown origin) assessed as protein activity at […] by electrochemiluminescence based ubiquitin profiler panel assay; set-up: scale not given: the % may be the effect or the level left
[25] = organism: Homo sapiens; assay: Inhibition of UBE1/UbcH5a/SCFFbw7/Cyclin E1 (unknown origin) assessed as protein activity at […] by electrochemiluminescence based ubiquitin profiler panel assay; set-up: scale not given: the % may be the effect or the level left
[26] = organism: Homo sapiens; assay: Inhibition of UBE1/UbcH3/SCFbTrCP1/b-catenin (unknown origin) assessed as protein activity at […] by electrochemiluminescence based ubiquitin profiler panel assay; set-up: scale not given: the % may be the effect or the level left
[27] = organism: Homo sapiens; assay: Inhibition of UBE1/UbcH4/MDM2/CK1d/p53 (unknown origin) assessed as protein activity at […] by electrochemiluminescence based ubiquitin profiler panel assay; set-up: scale not given: the % may be the effect or the level left
[28] = organism: Homo sapiens; assay: Inhibition of UBE1/UbcH5c/MDM2/MDM2(Auto) (unknown origin) assessed as protein activity at […] by electrochemiluminescence based ubiquitin profiler panel assay; set-up: scale not given: the % may be the effect or the level left
[29] = organism: Homo sapiens; assay: Inhibition of UBE1/UbcH4/c-Cbl/Src (unknown origin) assessed as protein activity at […] by electrochemiluminescence based ubiquitin profiler panel assay; set-up: scale not given: the % may be the effect or the level left
[30] = organism: Homo sapiens; assay: Inhibition of UBE1/UbcH4/c-Cbl/Kit (unknown origin) assessed as protein activity at […] by electrochemiluminescence based ubiquitin profiler panel assay; set-up: scale not given: the % may be the effect or the level left
[31] = organism: Homo sapiens; assay: Inhibition of UBE1/UbcH4/VHL/HIF-1a (unknown origin) assessed as protein activity at […] by electrochemiluminescence based ubiquitin profiler panel assay; set-up: scale not given: the % may be the effect or the level left
[32] = organism: Homo sapiens; assay: Inhibition of UBE1/UbcH5c/VHL/HIF-1a (unknown origin) assessed as protein activity at […] by electrochemiluminescence based ubiquitin profiler panel assay; set-up: scale not given: the % may be the effect or the level left
[33] = organism: Homo sapiens; assay: Inhibition of UBE1/UbcH7/Parkin/Parkin(Auto) (unknown origin) assessed as protein activity at […] by electrochemiluminescence based ubiquitin profiler panel assay; set-up: scale not given: the % may be the effect or the level left
[34] = organism: Homo sapiens; assay: Inhibition of UBE1/UbcH13/Uev1A/CHIP/p53 (unknown origin) assessed as protein activity at […] by electrochemiluminescence based ubiquitin profiler panel assay; set-up: scale not given: the % may be the effect or the level left
[35] = organism: Homo sapiens; assay: Inhibition of UBE1/UbcH13/Uev1A/CHIP/Hsp70 (unknown origin) assessed as protein activity at […] by electrochemiluminescence based ubiquitin profiler panel assay; set-up: scale not given: the % may be the effect or the level left
[36] = organism: Homo sapiens; assay: Inhibition of UBE1/UbcH5c/MuRF1/Cardiac Troponin (unknown origin) assessed as protein activity at […] by electrochemiluminescence based ubiquitin profiler panel assay; set-up: scale not given: the % may be the effect or the level left
[37] = organism: Homo sapiens; assay: Inhibition of UBE1/UbcH6/Parkin/p38/JTV-1 (unknown origin) assessed as protein activity at […] by electrochemiluminescence based ubiquitin profiler panel assay; set-up: scale not given: the % may be the effect or the level left
[38] = test system: KATO III stomach cancer cell line; assay: Antiproliferative activity against human KATO III cells incubated for 48 hrs by SRB assay; assay type: functional
[39] = test system: U-87 MG; assay: Antiproliferative activity against human U87MG cells incubated for 48 hrs by SRB assay; assay type: functional, U-87MG ATCC
[40] = test system: Hep 3B2; assay: Antiproliferative activity against human Hep3B cells incubated for 48 hrs by SRB assay; assay type: functional
[41] = test system: HepG2; assay: Antiproliferative activity against human HepG2 cells incubated for 48 hrs by SRB assay; assay type: functional; settings: HepG2, 48 h
[42] = test system: A498; assay: Antiproliferative activity against human A498 cells incubated for 48 hrs by SRB assay; assay type: functional; settings: A498, 48 h
[43] = test system: K562; assay: Antiproliferative activity against human K562 cells incubated for 48 hrs by SRB assay; assay type: functional; settings: K562, 48 h

Compound: O=C(Nc1ccncc1)c1ccc(CNC2=C(Cl)C(=O)c3ccccc3C2=O)cc1
- GI50 [1]: 2900 nM
- GI50 at 48 h [2]: 30000 nM
- GI50 at 48 h [3]: 16000 nM
- GI50 at 48 h [4]: 6300 nM
- GI50 [5]: 1200 nM
- GI50 [6]: 3800 nM
- GI50 [7]: 900 nM
- GI50 [8]: 210 nM
- GI50 [9]: > 5000 nM
- GI50 [10]: 4000 nM
- GI50 [11]: > 5000 nM
- GI50 [12]: 1800 nM
- GI50 [13]: 1400 nM
- GI50 [14]: 1900 nM
- GI50 [15]: 2500 nM
- inhibition [16]: Dose-dependent effect
- IC50 [17]: 2600 nM
- Activity [18]: Active
- inhibition in vivo at 25 mg/kg [19]: 98.3%
- inhibition in vivo at 50 mg/kg [20]: 100%
- Activity [21]: Non-Toxic
- Activity [22]: Non-Toxic
- Activity [23]: Non-Toxic
- Activity [24]: 85%
- Activity [25]: 100%
- Activity [26]: 101%
- Activity [27]: 71%
- Activity [28]: 105%
- Activity [29]: 89%
- Activity [30]: 86%
- Activity [31]: 96%
- Activity [32]: 100%
- Activity [33]: 65%
- Activity [34]: 52%
- Activity [35]: 93%
- Activity [36]: 92%
- Activity [37]: 79%
- GI50 [38]: 2400 nM
- GI50 [39]: 2500 nM
- GI50 [40]: 1400 nM
- GI50 [41]: 3600 nM
- GI50 [42]: 3500 nM
- GI50 [43]: 1700 nM

From ChEMBL document CHEMBL4130444, “1,4-Naphthoquinones as inhibitors of Itch, a HECT domain-E3 ligase, and tumor growth suppressors in multiple myeloma” (Eur J Med Chem, 2017)
